Numbers after ± are expanded uncertainties.
Assay: xn = mol fraction of the nth substance listed
Settings: 101 kPa, Liquid; for viscosity: Capillary tube (Ostwald / Ubbelohde) method; for mass density: Vibrating tube method

In the case of `ClC(Cl)Cl` [trichloromethane] + CC(=O)CC(C)C, the viscosity (283.15 K, x1 = 0.0847) is reported as 0.685 ± 0.006 mPa·s, the viscosity (283.15 K, x1 = 0.1841) is reported as 0.719 ± 0.006 mPa·s and the viscosity (283.15 K, x1 = 0.276) is reported as 0.755 ± 0.006 mPa·s. The viscosity (283.15 K, x1 = 0.3529) was 0.78 ± 0.006 mPa·s, the viscosity (283.15 K, x1 = 0.4467) was 0.808 ± 0.007 mPa·s and the viscosity (283.15 K, x1 = 0.506) was 0.812 ± 0.007 mPa·s. The viscosity (283.15 K, x1 = 0.6079) was 0.814 ± 0.007 mPa·s, the viscosity (283.15 K, x1 = 0.6959) was 0.798 ± 0.007 mPa·s and the viscosity (283.15 K, x1 = 0.8213) was 0.746 ± 0.006 mPa·s. The viscosity (283.15 K, x1 = 0.9067) was 0.689 ± 0.006 mPa·s, the viscosity (283.15 K, x1 = 1) was 0.629 ± 0.005 mPa·s and the mass density (283.15 K, x1 = 0.0847) was 849 ± 1 kg/m3. The mass density (283.15 K, x1 = 0.1841) was 898.2 ± 1.1 kg/m3, the mass density (283.15 K, x1 = 0.276) was 947.2 ± 1.1 kg/m3 and the mass density (283.15 K, x1 = 0.3529) was 991.1 ± 1.2 kg/m3. For the same compound, the mass density (283.15 K, x1 = 0.4467) was 1048.8 ± 1.3 kg/m3, the mass density (283.15 K, x1 = 0.506) was 1087.7 ± 1.4 kg/m3 and the mass density (283.15 K, x1 = 0.6079) was 1159.3 ± 1.5 kg/m3. It also gave a mass density (283.15 K, x1 = 0.6959) of 1226.7 ± 1.7 kg/m3, a mass density (283.15 K, x1 = 0.8213) of 1332.6 ± 1.8 kg/m3 and a mass density (283.15 K, x1 = 0.9067) of 1412.3 ± 2 kg/m3. For the same compound, the mass density (283.15 K, x1 = 1) was 1507.3 ± 0.7 kg/m3, the viscosity (293.15 K, x1 = 0.0847) was 0.598 ± 0.005 mPa·s and the viscosity (293.15 K, x1 = 0.1841) was 0.63 ± 0.005 mPa·s. The viscosity (293.15 K, x1 = 0.276) was 0.659 ± 0.006 mPa·s, the viscosity (293.15 K, x1 = 0.3529) was 0.678 ± 0.006 mPa·s and the viscosity (293.15 K, x1 = 0.4467) was 0.696 ± 0.006 mPa·s. It also gave a viscosity (293.15 K, x1 = 0.506) of 0.703 ± 0.006 mPa·s, a viscosity (293.15 K, x1 = 0.6079) of 0.704 ± 0.006 mPa·s and a viscosity (293.15 K, x1 = 0.6959) of 0.696 ± 0.006 mPa·s. The viscosity (293.15 K, x1 = 0.8213) was 0.664 ± 0.006 mPa·s, the viscosity (293.15 K, x1 = 0.9067) was 0.629 ± 0.005 mPa·s and the viscosity (293.15 K, x1 = 1) was 0.573 ± 0.005 mPa·s. The mass density (293.15 K, x1 = 0.0847) was 839.4 ± 1 kg/m3, the mass density (293.15 K, x1 = 0.1841) was 888.1 ± 1.1 kg/m3 and the mass density (293.15 K, x1 = 0.276) was 936.6 ± 1.1 kg/m3. The mass density (293.15 K, x1 = 0.3529) was 980.1 ± 1.2 kg/m3, the mass density (293.15 K, x1 = 0.4467) was 1037 ± 1.3 kg/m3 and the mass density (293.15 K, x1 = 0.506) was 1075.3 ± 1.4 kg/m3. It also gave a mass density (293.15 K, x1 = 0.6079) of 1146 ± 1.5 kg/m3, a mass density (293.15 K, x1 = 0.6959) of 1212.4 ± 1.7 kg/m3 and a mass density (293.15 K, x1 = 0.8213) of 1316.7 ± 1.8 kg/m3. It also gave a mass density (293.15 K, x1 = 0.9067) of 1395 ± 2 kg/m3, a mass density (293.15 K, x1 = 1) of 1488.4 ± 0.7 kg/m3 and a viscosity (303.15 K, x1 = 0.0847) of 0.531 ± 0.005 mPa·s. For the same compound, the viscosity (303.15 K, x1 = 0.1841) was 0.558 ± 0.005 mPa·s, the viscosity (303.15 K, x1 = 0.276) was 0.577 ± 0.005 mPa·s and the viscosity (303.15 K, x1 = 0.3529) was 0.596 ± 0.005 mPa·s. The viscosity (303.15 K, x1 = 0.4467) was 0.616 ± 0.005 mPa·s, the viscosity (303.15 K, x1 = 0.506) was 0.62 ± 0.005 mPa·s and the viscosity (303.15 K, x1 = 0.6079) was 0.623 ± 0.005 mPa·s. The viscosity (303.15 K, x1 = 0.6959) was 0.619 ± 0.005 mPa·s, the viscosity (303.15 K, x1 = 0.8213) was 0.592 ± 0.005 mPa·s and the viscosity (303.15 K, x1 = 0.9067) was 0.56 ± 0.005 mPa·s. For the same compound, the viscosity (303.15 K, x1 = 1) was 0.516 ± 0.005 mPa·s, the mass density (303.15 K, x1 = 0.0847) was 829.9 ± 1 kg/m3 and the mass density (303.15 K, x1 = 0.1841) was 878 ± 1 kg/m3. For the same compound, the mass density (303.15 K, x1 = 0.276) was 925.8 ± 1.1 kg/m3, the mass density (303.15 K, x1 = 0.3529) was 968.7 ± 1.2 kg/m3 and the mass density (303.15 K, x1 = 0.4467) was 1025 ± 1.3 kg/m3. It also gave a mass density (303.15 K, x1 = 0.506) of 1062.8 ± 1.4 kg/m3, a mass density (303.15 K, x1 = 0.6079) of 1132.5 ± 1.5 kg/m3 and a mass density (303.15 K, x1 = 0.6959) of 1197.9 ± 1.6 kg/m3. It also gave a mass density (303.15 K, x1 = 0.8213) of 1300.6 ± 1.8 kg/m3, a mass density (303.15 K, x1 = 0.9067) of 1377.7 ± 2 kg/m3 and a mass density (303.15 K, x1 = 1) of 1469.4 ± 0.6 kg/m3. For the same compound, the viscosity (313.15 K, x1 = 0.0847) was 0.472 ± 0.004 mPa·s, the viscosity (313.15 K, x1 = 0.1841) was 0.493 ± 0.005 mPa·s and the viscosity (313.15 K, x1 = 0.276) was 0.513 ± 0.005 mPa·s. The viscosity (313.15 K, x1 = 0.3529) was 0.526 ± 0.005 mPa·s, the viscosity (313.15 K, x1 = 0.4467) was 0.542 ± 0.005 mPa·s and the viscosity (313.15 K, x1 = 0.506) was 0.551 ± 0.005 mPa·s. The viscosity (313.15 K, x1 = 0.6079) was 0.557 ± 0.005 mPa·s, the viscosity (313.15 K, x1 = 0.6959) was 0.554 ± 0.005 mPa·s and the viscosity (313.15 K, x1 = 0.8213) was 0.533 ± 0.005 mPa·s. For the same compound, the viscosity (313.15 K, x1 = 0.9067) was 0.503 ± 0.005 mPa·s, the viscosity (313.15 K, x1 = 1) was 0.468 ± 0.004 mPa·s and the mass density (313.15 K, x1 = 0.0847) was 820 ± 1 kg/m3. The mass density (313.15 K, x1 = 0.1841) was 867.5 ± 1 kg/m3, the mass density (313.15 K, x1 = 0.276) was 914.9 ± 1.1 kg/m3 and the mass density (313.15 K, x1 = 0.3529) was 957.1 ± 1.2 kg/m3. It also gave a mass density (313.15 K, x1 = 0.4467) of 1012.6 ± 1.2 kg/m3, a mass density (313.15 K, x1 = 0.506) of 1050 ± 1.4 kg/m3 and a mass density (313.15 K, x1 = 0.6079) of 1118.7 ± 1.4 kg/m3. The mass density (313.15 K, x1 = 0.6959) was 1183.2 ± 1.6 kg/m3, the mass density (313.15 K, x1 = 0.8213) was 1284.1 ± 1.7 kg/m3 and the mass density (313.15 K, x1 = 0.9067) was 1359.8 ± 1.9 kg/m3. For the same compound, the mass density (313.15 K, x1 = 1) was 1450 ± 0.6 kg/m3.
